Reference: patent US20240199612A1, “IMIDAZOPYRIDINYL INHIBITORS OF PLASMA KALLIKREIN” (SHIRE HUMAN GENETIC THERAPIES, INC., priority 2021, published 2024)

How the values were obtained:
[1] = target: human activated kallikrein enzyme (Homo sapiens, UniProt P03952); test: Inhibition of human activated plasma kallikrein, fluorogenic peptide substrate (PFR-AMC) assay, 500 pM enzyme format; format: biochemical; details: format with 500 pM activated kallikrein, 300 uM PFR-AMC, 30 min preincubation, 10 min reaction, room temperature; read-out: Primary Dose Response Assay: Average EC50
Procedure: Inhibitory Activity of Exemplary Compounds against Plasma Kallikrein.
Compounds were evaluated for inhibition of the human activated kallikrein enzyme in two formats of an assay employing a fluorogenic peptide substrate. In one assay format, the concentrations of reagents were as follows: 20 mM Tris pH 7.5, 1 mM EDTA, 150 mM sodium chloride, 0.1% PEG-400, 0.1% Triton X-100, 500 pM activated kallikrein enzyme, 300 uM Pro-Phe-Arg-7-amido-4-methylcoumarin (PFR-AMC) substrate. Prior to reaction initiation with substrate, enzyme and inhibitors were preincubated for 30 min at room temperature. After initiation with substrate, reactions were incubated for 10 min at room temperature and fluorescence emission at 460 nm from 380 nm excitation measured with a microplate reader. In another assay format, the concentrations of reagents were as follows: 20 mM Tris pH 7.5, 1 mM EDTA, 150 mM sodium chloride, 0.1% PEG-400, 0.1% Triton X-100, 5 pM activated kallikrein enzyme, 300 uM PFR-AMC substrate. Prior to reaction initiation with substrate, enzyme and inhibitors were preincubated for 30 min at room temperature. After initiation with substrate, reactions were incubated for 18 hr at room temperature and fluorescence emission at 460 nm from 380 nm excitation measured with a microplate reader.

[2] = target: T1, plasma kallikrein (Homo sapiens, UniProt P03952); test: Neat human plasma assay (contact pathway-activated plasma, FXIIa, PFR-AMC substrate); format: biochemical; details: sodium citrate human plasma, 78% final plasma, 10 nM human FXIIa, 100 μM PFR-AMC, room temperature
T1 construct: from tissue; host or cells: sodium citrate collected human plasma (78% final)
Procedure: Neat Human and Rat Plasma Assay
To analyze inhibition of plasma kallikrein in an ex vivo setting, the potency of compounds was measure in contact pathway-activated plasma assays. In a fluorogenic peptide substrate assay, test compounds dissolved in DMSO were added to sodium citrate collected human or rat plasma in a 96-well microplate. Alternatively, citrated plasma was collected from rats administered the compounds orally or by IV. 10 nM of human FXIIa (Enzyme Research Laboratories) diluted in PKa buffer (20 mM Tris-HCl, pH 7.5, 150 mM NaCl, 1 mM EDTA, 0.1% PEG-8000, and 0.1% Triton X-100) was added to the plasma, followed by the 100 μM of the profluorescent, synthetic plasma kallikrein substrate PFR-AMC (also diluted in PKa buffer). Final plasma concentration in the reaction was 78%. Fluorescence was immediately monitored by excitation/emission wavelengths of 360 nm/480 nm respectively over a period of 5 minutes in a microplate reader. The resulting linear increase in fluorescence emission (reflecting PKa proteolysis of PFR-AMC substrate) was fit to extract a proteolytic rate (fluorescent units over time), and this rate was subsequently plotted against compound inhibitor concentration. Resulting plots were fit to a standard 4-parameter IC50/IC90 equation to determine min/max values, IC50/90, and slope. All experimental steps were performed at room temperature.

T1 sequence (P03952 391-638 limits assumed): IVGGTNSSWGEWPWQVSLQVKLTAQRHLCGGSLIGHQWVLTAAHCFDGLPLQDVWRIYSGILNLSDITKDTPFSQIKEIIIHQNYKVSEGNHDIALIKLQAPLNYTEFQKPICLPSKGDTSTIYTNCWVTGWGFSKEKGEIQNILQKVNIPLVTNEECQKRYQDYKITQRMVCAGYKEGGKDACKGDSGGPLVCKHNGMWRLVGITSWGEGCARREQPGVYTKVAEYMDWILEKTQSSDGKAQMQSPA
T1 sequence (P03952 20-390 partner limits assumed): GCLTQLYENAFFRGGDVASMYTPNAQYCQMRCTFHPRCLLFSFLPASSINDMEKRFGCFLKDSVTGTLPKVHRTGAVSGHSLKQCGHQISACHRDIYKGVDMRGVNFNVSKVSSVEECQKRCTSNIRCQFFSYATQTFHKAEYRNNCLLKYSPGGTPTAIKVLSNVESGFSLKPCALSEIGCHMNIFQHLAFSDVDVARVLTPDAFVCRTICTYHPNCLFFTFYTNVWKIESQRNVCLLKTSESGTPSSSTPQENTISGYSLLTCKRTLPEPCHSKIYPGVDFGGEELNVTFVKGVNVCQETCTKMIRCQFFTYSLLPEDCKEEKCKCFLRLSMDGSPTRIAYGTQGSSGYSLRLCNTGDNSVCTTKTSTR
human activated kallikrein enzyme, sequence (P03952 391-638 limits assumed): as the sequence (P03952 391-638 limits assumed) above
human activated kallikrein enzyme, sequence (P03952 20-390 partner limits assumed): as the sequence (P03952 20-390 partner limits assumed) above

| EC50 [1] [µM] | IC90 [2] [µM] | Structure (SMILES) |
| --- | --- | --- |
| < 0.005 | 7.5 to 15 | O=C(Nc1cc(OCc2cn3cc(C4CC4)ccc3n2)ccn1)OCc1cc(Cl)ccc1-n1cnnn1 [Compound I-12, 5-chloro-2-(1H-tetrazol-1-yl)benzyl (4-((6-cyclopropylimidazo[1,2-a]pyridin-2-yl)methoxy)pyridin-2-yl)carbamate] |
| < 0.005 | 7.5 to 15 | O=C(Nc1cc(NCc2cn3cc(C4CC4)ccc3n2)ccn1)OCc1cccc(Cl)c1 [Compound I-13, 3-chlorobenzyl (4-(((6-cyclopropylimidazo[1,2-a]pyridin-2-yl)methyl)amino)pyridin-2-yl)carbamate] |
| < 0.005 | 2.5 to 7.5 | CC(OC(=O)Nc1cc(NCc2cn3cc(C4CC4)ccc3n2)ccn1)c1cccc(Cl)c1 (stereo not drawn) [Compound I-15, 1-(3-chlorophenyl)ethyl (4-(((6-cyclopropylimidazo[1,2-a]pyridin-2-yl)methyl)amino)pyridin-2-yl)carbamate] |
| < 0.005 | 2.5 to 7.5 | CC(OC(=O)Nc1cc(NCc2cn3cc(C4CC4)ccc3n2)ccn1)c1cc(Cl)ccc1-n1cnnn1 (stereo not drawn) [Compound I-21, 1-(5-chloro-2-(1H-tetrazol-1-yl)phenyl)ethyl (4-(((6-cyclopropylimidazo[1,2-a]pyridin-2-yl)methyl)amino)pyridin-2-yl)carbamate] |
| < 0.005 | ≤ 2.5 | O=C(Nc1cc(NCc2cn3cc(C4CC4)ccc3n2)ncn1)OCc1cc(Cl)ccn1 [Compound I-26, (4-chloropyridin-2-yl)methyl (6-(((6-cyclopropylimidazo[1,2-a]pyridin-2-yl)methyl)amino)pyrimidin-4-yl)carbamate] |
| < 0.005 | ≤ 2.5 | O=C(Nc1cc(N2C[C@@H](O)C[C@@H]2c2cn3cc(C4CC4)ccc3n2)ncn1)OCc1cc(Cl)ccn1 [Compound I-28, (4-chloropyridin-2-yl)methyl (6-((2R,4S)-2-(6-cyclopropylimidazo[1,2-a]pyridin-2-yl)-4-hydroxypyrrolidin-1-yl)pyrimidin-4-yl)carbamate] |
